Experimental data from publication PMC6278385, “Preclinical Pharmacokinetics of C118P, a Novel Prodrug of Microtubules Inhibitor and Its Metabolite C118 in Mice, Rats, and Dogs” (Molecules, 2018).
Like-named read-outs stand apart in the source and are kept apart here. Each block holds one molecule with its values, some of them ahead of it.

Columns and labels:
[1] = Metabolic stability in liver microsomes; type: in vitro ADME, human
Method: (§1) The in vitro metabolic stability of C118P and C118 were estimated in mice, rat, dog, monkey, and human liver microsomes (Research Institute for Liver Diseases Co. Ltd (Shanghai, China)). The incubation mixture contains C118P or C118, NADP (1.0 mM), G-6-P (10 mM), PDH (2 units/mL), MgCl2 (10 mM), and liver microsomes (mice, rats, dogs, monkeys, or humans, 1.0 mg protein/mL) in phosphate buffer. A total of 200 μL of the mixture was removed and quenched with 600 μL acetonitrile in an ice bath at 0, 15, 30, 60, 120, and 240 min after the addition of NADPH.
(§2) CLint, in vitro (the in vitro intrinsic clearance, Equation (1)) was calculated from the t1/2 of C118 disappearance, where Cprotein is the protein concentration during the incubation, and t1/2 was determined by the slope (k) of the log-linear regression analysis of the concentration versus time profiles; thus, t1/2 = ln2/k. […] The in vivo hepatic clearance (CLH, Equation (3)) was then calculated by using CLint and hepatic blood flow, Q ([…] mL·min^−1·kg^−1 in rats, dogs, monkey, and humans, respectively), in the well-stirred liver model disregarding all binding. The hepatic extraction ratio was calculated as CLH divided by Q. CLint, in vitro = (0.693/t1/2) × (1/Cprotein)(1) CLint = CLint, in vitro × (mg protein/g liver weight) × (gliver weight/kg body weight)(2) CLH = (Q × CLint)/(Q + CLint)(3)

[2] = Metabolic stability in liver microsomes; type: in vitro ADME, dog
Method: as §1, §2

[3] = PK in rats after i.v. C118P; type: in vivo, SD rats; conditions: plasma; for AUC(0-inf) / half-life / clearance / concentration at 30 s: both sexes, rat; for AUC(0-inf) / half-life / clearance: iv; for concentration at 30 s: read-out: C2min (C30s for Rat)
Method: The SD rats were supplied by the medical animal experiment center of Chinese People’s Liberation Army Nanjing military region. Twenty-four rats (210–300 g) with half males and half females were divided randomly into four groups. C118P was dissolved in saline to achieve different concentrations for intravenous administration. After fasting overnight, the rats were administered with a single intravenous dose of 5, 10, 20, or 50 mg/kg C118P. Blood samples (approximately 200 μL) were collected in EDTA-coated tubes pre-dose (0), and 30s, 2, 5, 10, 20, 40 min, 1, 2, 4, 8, 12 and 24 h post dose. Plasma was prepared by centrifugation at 8000 rpm for 5 min, and the plasma samples were then prepared and determined by the method described above.
(§3) The area under the plasma-concentration-versus-time curve from 0 to infinite (AUC0-inf), the elimination half-life (t1/2), the systemic plasma clearance (CL) and the volume of distribution (V) were calculated by non-compartmental analysis with WinNonlin software v6.3 (Pharsight Corporation, St. Louis, MO 63144, USA) from the plasma concentration data of C118P and C118, respectively. The instantaneous concentrations after intravenous to rats (C30s) or dogs (C2min) were obtained directly from the observed data.

Whole blood/plasma ratio = type: in vitro ADME; conditions: in rat, incubation 30 min
Method: The ratio of C118P and C118 in blood and plasma was studied. The whole blood was obtained from healthy volunteer and was separated into two parts to obtain whole blood and plasma. Standard solution was added into whole blood and plasma to mimic the incurred sample. After incubation for 30 min, the whole blood was separated into two parts. One was frozen and thawed to obtain the homogenous whole blood and the other sample was centrifuged to obtain plasma. The samples were analyzed by the established LC-MS/MS method and the blood plasma ratio was calculated.

[4] = Tissue distribution in rats; type: in vivo; conditions: for concentration at 10 min: both sexes, Sprague-Dawley (SD), rat, iv, 10 min after i.v. 20 mg/kg of C118P
Method: Eighteen rats (weight 220–260 g) with half males and half females were randomly assigned to there groups to carry out a tissue distribution study and fasted overnight. Blood and tissue samples, including the brain, skin, muscle, fat, testicle/ovary, pancreas, spleen, kidney, stomach, small intestine, heart, liver, lung, thymus, and thighbone were collected at 10 min, 1, and 4 h after intravenous administration (20 mg/kg). Blood was centrifuged for plasma samples. Tissue samples were rinsed with water to remove the blood and blotted dry with filter paper. An accurately-weighed amount of the tissue sample (0.2 g) or the entire organ for which weight less than 0.2 g was individually homogenized with EDTA solution (40 mg/mL, 2.0 mL). The left thigh bone was crushed and then soaked overnight in methanol-EDTA solution (1:1, v/v). A volume of 50 μL of homogenate or soak solution was prepared by protein precipitation and determined by the method described above. Tissue weights were used for calculating the concentrations (ng/g) of C118P and C118 in tissues.

[5] = PK in tumor-bearing nude mice after i.v. C118P; type: in vivo, nude mice (BALB/cA) implanted with NCI-H460 tumor; conditions: for concentration at 2 min: read-out: C2min
Method: The nude mice (BALB/cA) implanted with NCI-H460 tumor were provided by Shanghai Institute of Materia Medica. A total of 36 mice were divided into 9 groups with four animals in each group. After fasting overnight with free access to water, the mice were treated with 75 mg/kg C118P by i.v. The blood samples were collected at 2, 10, 20, 40 min, 1, 2, 4, 8, 12 h after treatment and the mice were anaesthetized and decapitated to obtain the blood and tumor tissue. Blood, brain, muscle, ovary, and lung from mice in the PK study were collected at 10 min, 1, 4, and 12 h. Tissues were cleaned by absorbent filter paper to remove the blood. Bloods were centrifuged at 10,000× g for 5 min. Each tissue (0.2 g) was homogenized with 2 mL water. The plasma samples and the homogenates were then processed and determined by the method described above. The concentration was determined by the calibration curve and the actual concentration was corrected by multiplying by 10 according to the dilution times.
as §3

[6] = SD, in vivo, rats, i.v. C118P 5 mg/kg, n = 6
[7] = SD, in vivo, rats, i.v. C118P 20 mg/kg, n = 6
[8] = SD, in vivo, rats, i.v. C118P 50 mg/kg, n = 6
[9] = Sprague-Dawley, in vivo, rats, i.v. C118P 10 mg/kg, n = 6
[10] = nude mice, tumor, i.v. C118P 75 mg/kg, n = 4
[11] = SD, rats, i.v. C118P 5 mg/kg, n = 6
[12] = SD, rats, i.v. C118P 20 mg/kg, n = 6
[13] = SD, rats, i.v. C118P 50 mg/kg, n = 6
[14] = Sprague-Dawley, rats, i.v. C118P 10 mg/kg, n = 6

SMILES: COc1cc(OC)cc(-c2nc[nH]c2-c2ccc(OC)c(OP(=O)([O-])[O-])c2)c1.[Na+].[Na+] [C118P]
stability in liver microsomes ([1]; human liver microsomes (Figure S1)): quite stable
stability in liver microsomes ([2]; dog microsomes (Figure S1)): not stable
AUC(0-inf) [3, 6]: 5740 ± 766 ng·h/mL
half-life [3, 6]: 14.4 ± 3 min
clearance ([3]; SD, in vivo, rats, i.v. C118P 5 mg/kg, n = 6, read-out: CL (converted)): 14.7 mL/min/kg
clearance ([3]; SD, in vivo, rats, i.v. C118P 10 mg/kg, n = 6, read-out: CL (converted)): 16.4 mL/min/kg
AUC(0-inf) [3, 7]: 18700 ng·h/mL
half-life [3, 7]: 22.8 ± 6 min
clearance ([3]; SD, in vivo, rats, i.v. C118P 20 mg/kg, n = 6, read-out: CL (converted)): 18.5 mL/min/kg
AUC(0-inf) [3, 8]: 38900 ng·h/mL
half-life [3, 8]: 48 ± 34.2 min
clearance ([3]; SD, in vivo, rats, i.v. C118P 50 mg/kg, n = 6, read-out: CL (converted)): 22.3 mL/min/kg
concentration at 30 s [3, 6]: 75.6 µg/mL
concentration at 30 s [3, 7]: 219 µg/mL
concentration at 30 s [3, 8]: 373 µg/mL
AUC(0-inf) [3, 9]: 10400 ng·h/mL
half-life [3, 9]: 12.6 ± 3 min
concentration at 30 s [3, 9]: 134 µg/mL
V ([3]; rats, i.v. C118P 5 mg/kg, n = 6): 0.3025 ± 0.0611 L/kg
V ([3]; rats, i.v. C118P 10 mg/kg, n = 6): 0.2994 ± 0.0676 L/kg
V ([3]; rats, i.v. C118P 20 mg/kg, n = 6): 0.5826 ± 0.1142 L/kg
V ([3]; rats, i.v. C118P 50 mg/kg, n = 6): 1.5022 ± 1.0658 L/kg
blood plasma ratio at 30 min (Whole blood/plasma ratio): 0.8
tissue concentration ([4]; 10 min, 1 h and 4 h after i.v. 20 mg/kg of C118P, LLOQ 50 ng/g for tissues): below or slightly higher than the LLOQ
half-life ([5]; BALB/cA nude, mouse, in vivo, iv, 75 mg/kg, nude mice, plasma, i.v. C118P 75 mg/kg, n = 4): 118 ± 64.2 min
half-life ([5]; BALB/cA nude, mouse, in vivo, iv, 75 mg/kg, nude mice, tumor, i.v. C118P 75 mg/kg, n = 4): 69.6 ± 45.6 min
AUC(0-inf) ([5]; BALB/cA nude, mouse, in vivo, iv, nude mice, plasma, i.v. C118P 75 mg/kg, n = 4, read-out: AUC0-inf): 13500 ng·h/mL
clearance ([5]; BALB/cA nude, mouse, in vivo, iv, nude mice, plasma, i.v. C118P 75 mg/kg, n = 4, read-out: CL (converted)): 96.9 mL/min/kg
concentration at 2 min ([5]; BALB/cA nude, mouse, in vivo, nude mice, plasma, i.v. C118P 75 mg/kg, n = 4): 106 µg/mL
concentration at 2 min ([5]; BALB/cA nude, mouse, in vivo, nude mice, tumor, i.v. C118P 75 mg/kg, n = 4): 292 ± 80.2 ng/g
V ([5]; nude mice, plasma, i.v. C118P 75 mg/kg, n = 4): 15,404.8 ± 7499.6 mL/kg
AUC(0-inf) [5, 10]: 217.7 ± 9.3 ng·h/g

CLint, in vitro ([1]; human liver microsomes): 58.2 μL·min^−1·mg^−1 Protein
half-life ([1]; human liver microsomes, 1.0 mg protein/mL, C118 disappearance): 11.9 min
CLint ([1]; human, scaled from CLint, in vitro): 47.9 mL/min/kg
Extrapolated CLH ([1]; human, well-stirred liver model): 14.1 mL/min/kg
CLint, in vitro ([2]; dog liver microsomes): 9.9 μL·min^−1·mg^−1 Protein
half-life ([2]; dog liver microsomes, 1.0 mg protein/mL, C118 disappearance): 70.1 min
CLint ([2]; dog, scaled from CLint, in vitro): 18.9 mL/min/kg
Extrapolated CLH ([2]; dog, well-stirred liver model): 12.8 mL/min/kg
concentration at 30 s ([3]; SD, intravenous, rats, i.v. C118P 5 mg/kg, n = 6): 1.58 ± 0.318 µg/mL
concentration at 30 s ([3]; SD, intravenous, rats, i.v. C118P 20 mg/kg, n = 6): 7.72 ± 2.01 µg/mL
concentration at 30 s ([3]; SD, intravenous, rats, i.v. C118P 50 mg/kg, n = 6): 20.6 µg/mL
AUC(0-inf) [3, 11]: 741 ± 63.2 ng·h/mL
half-life [3, 11]: 31.2 ± 6 min
AUC(0-inf) [3, 12]: 3750 ± 592 ng·h/mL
half-life [3, 12]: 36 ± 3.6 min
AUC(0-inf) [3, 13]: 9720 ± 1300 ng·h/mL
half-life [3, 13]: 149 ± 75.6 min
clearance ([3]; Sprague-Dawley, in vivo, compared with extrapolated CLH, read-out: Observed CL): 62.9 mL/min/kg
concentration at 30 s ([3]; Sprague-Dawley, intravenous, rats, i.v. C118P 10 mg/kg, n = 6): 3.72 ± 0.974 µg/mL
AUC(0-inf) [3, 14]: 1600 ± 193 ng·h/mL
half-life [3, 14]: 33 ± 7.8 min
blood plasma ratio at 30 min (Whole blood/plasma ratio; whole blood and plasma): 1.05
tissue concentration in most tissues ([4]; 4 h after i.v. 20 mg/kg of C118P, LLOQ 50 ng/g for tissues): below or slightly higher than LLOQ
concentration at 10 min ([4]; heart, read-out: tissue concentration in heart): 6340 ± 4130 ng/g
concentration at 10 min ([4]; kidney, read-out: tissue concentration in kidney): 7640 ± 3410 ng/g
concentration at 10 min ([4]; lung, read-out: tissue concentration in lung): 12900 ng/g
concentration at 2 min ([5]; BALB/cA nude, mouse, intravenous, nude mice, plasma, i.v. C118P 75 mg/kg, n = 4): 42.5 µg/mL
concentration at 2 min ([5]; BALB/cA nude, mouse, intravenous, nude mice, tumor, i.v. C118P 75 mg/kg, n = 4): 13800 ng/g
half-life ([5]; BALB/cA nude, mouse, iv, nude mice, plasma, i.v. C118P 75 mg/kg, n = 4): 58.2 ± 6 min
AUC(0-inf) ([5]; BALB/cA nude, mouse, iv, nude mice, plasma, i.v. C118P 75 mg/kg, n = 4, read-out: AUC0-inf): 13400 ng·h/mL
half-life ([5]; BALB/cA nude, mouse, iv, nude mice, tumor, i.v. C118P 75 mg/kg, n = 4): 222 ± 88.8 min
clearance ([5]; BALB/cA nude, mouse, plasma, iv, 75 mg/kg, mice, in vivo, compared with extrapolated CLH, read-out: Observed CL): 88.8 mL/min/kg
AUC(0-inf) [5, 10]: 73,027.8 ± 24,951.2 ng × h/g
SMILES: COc1cc(OC)cc(-c2nc[nH]c2-c2ccc(OC)c(O)c2)c1 [C118]
